Legend:
A. flavus = experiment: Inhibition of MTT tetrazolium salt reduction by A. flavus (mold), microtitration plate (Example 3, Table IV); type: cell-based, Aspergillus flavus (ATCC 20047); conditions: Aspergillus flavus, 0.5 h, 540 nm, 37° C., 30 min, read-out: Corrected Percent Inhibition
Description: (§1) gram-negative microorganism Escherichia coli (ATCC 25922), gram-positive microorganism Staphylococcus aureus (ATCC 25923), and Candida albicans yeast cells (ATCC 14053), brain heart infusion broth (BHI) and Sabaroud's dextrose broth (SAB) from Difco Laboratories (Detroit, Michigan, U.S.A.), and Aspergillus flavus (ATCC 20047), a mold from American Type Culture Collection (Rockville, Maryland, U.S.A.).
(§2) E. coli and S. aureus were grown overnight in BHI broth at 37° C. C. albicans and A. flavus were grown overnight at 25° C. in SAB broth with agitation. The cells were harvested by centrifugation, washed and resuspended in 0.05 molar N-2-hydroxyethylpiperazine-N'-2-ethanesulfonic acid (HEPES) buffer (pH 7.8).
(§3) The differentiations of yeast and mold from bacteria were carried out in microtitration plates. The cell suspensions used were like those described in Example 2. The reducible compound used was 3-(4,5-dimethyl-2-thiazolyl)-2,5-diphenyl-2H-tetrazolium bromide (MTT). A composition containing MTT was prepared with the following components: 200 μl MTT solution (5 mg/ml methanol), 200 μl glucose solution (10% glucose in water), 200 μl trimethyl-1,4-benzoquinone ETA and 12 ml of HEPES buffer (0.05 molar, pH 7.8).
(§4) Test solutions were prepared using the following components: 50 μl HEPES buffer, 50 μl filipin polyene antibiotic (12.5 mg/ml dimethylsulfoxide)(serial dilutions of buffer and antibiotic solutions were performed to obtain various antibiotic concentrations), 50 μl of the appropriate cell suspension, i.e. E. coli (about 10^8 cells/ml), S. aureus (about 10^8 cells/ml), C. albicans (about 10^7 cells/ml) and A. flavus, and […] of the MTT composition noted above. Cell Controls contained all reagents except the antibiotic. Background was measured with buffer. Solution Controls contained all reagents except cells.
(§5) Optical density measurements were made at 540 nm using a commercially available spectrophotometer, and the change in optical density (ΔOD) was determined after 30 minutes at 37° C. […] It is apparent that the concentration effective for differentiation of yeast is different than for mold. However, it is well within the skill of a worker in the art to determine the appropriate concentration for a given test.

E. coli [1] = experiment: Inhibition of MTT tetrazolium salt reduction by E. coli, microtitration plate (Example 3, Table IV); type: cell-based, Escherichia coli (ATCC 25922); conditions: Escherichia coli, 0.5 h, E. coli (gram -), 540 nm, 37° C., 30 min, read-out: Corrected Percent Inhibition
Description: as §1, §2, §3, §4, §5

C. albicans [2] = experiment: Inhibition of MTT tetrazolium salt reduction by C. albicans, microtitration plate (Example 3, Table IV); type: cell-based, Candida albicans (ATCC 14053); conditions: Candida albicans, 0.5 h, C. albicans (yeast), 540 nm, 37° C., 30 min, read-out: Corrected Percent Inhibition
Description: as §1, §2, §3, §4, §5

C. albicans [3] = experiment: Inhibition of RIND XXXV reduction by C. albicans, microtitration plate, fluorescence (Example 2, Table III); type: cell-based, Candida albicans (ATCC 14053); conditions: Candida albicans, 0.5 h, C. albicans (yeast), 37° C., 30 min, read-out: Corrected Percent Inhibition
Description: as §1, §2
Dispersions containing RIND compounds were prepared by dissolving, for example, RIND VII from Table I above in N,N-dimethylformamide (DMF) at 16 mg compound per ml of solvent. An aliquot (250 μl) of the resulting solution was added to 500 μl of TRITON X-100 surfactant. This mixture was then added dropwise with stirring to 25 ml of 0.05 molar HEPES buffer. A solution containing a water-compatible RIND compound (for example, RIND XXXV) was prepared by dissolving the compound in N,N-dimethylformamide which had been acidified with 0.1% sulfuric acid (16 mg RIND compound per ml of solvent).
A composition was prepared from the following components: 100 μl RIND XXXV solution (16 mg RIND compound per ml of acidified N,N-dimethylformamide), 200 μl glucose solution (10% in water), 200 μl trimethyl-1,4-benzoquinone ETA solution (1.5 mg/ml methanol) and 10 ml HEPES buffer.
Test solutions were prepared using the following reagents: 50 μl HEPES buffer, 50 μl filipin polyene antibiotic (12.5 mg/ml dimethylsulfoxide)(serial dilutions of buffer and antibiotic solutions were performed to obtain various antibiotic concentrations), 50 μl of the appropriate cell suspensions, that is, E. coli (about 10^8 cells/ml), S. aureus (about 10^8 cells/ml), C. albicans (about 10^7 cells/ml) and A. flavus, and […] of the RIND composition described above.
Control solutions were prepared as described in Example 1. Relative fluorescence was measured using a Dynatech MICROFLUOR Reader (Dynatech Laboratories, Alexandria, Virginia) modified to read at excitation 540 nm and emission 620 nm, at zero time and after incubation at 37° C. for 30 minutes. The change in relative fluorescence was then determined as the difference of the two values.

E. coli [4] = experiment: Inhibition of RIND XXXV reduction by E. coli, dry analytical element (Example 4, Table V); type: cell-based, Escherichia coli (ATCC 25922); conditions: E. coli (gram -), 37° C., 30 min
Description: as §1, §2
(§6) Dispersions containing RIND compounds were prepared by dissolving, for example, RIND VII from Table I above in N,N-dimethylformamide (DMF) at 16 mg compound per ml of solvent. An aliquot (250 μl) of the resulting solution was added to 500 μl of TRITON X-100 surfactant. […]
(§7) A standard paper punch was used to cut circular elements (about 0.6 cm in diameter) from the dried strips. […] Buffer solution was applied to separate elements for background readings.
(§8) Relative fluorescence (excitation at 540 nm and emission at 620 nm) was measured using a Dynatech MICROFLUOR reader at zero time and after 30 minutes incubation at 37° C., and the change in relative fluorescence was determined.

C. albicans [5] = experiment: Inhibition of RIND XXXV reduction by C. albicans, dry analytical element (Example 4, Table V); type: cell-based, Candida albicans (ATCC 14053); conditions: C. albicans (yeast), 37° C., 30 min
Description: as §1, §2, §6, §7, §8

With `CCCCC[C@@H](O)[C@H]1C(=O)O[C@H](C)[C@@H](O)/C=C/C=C/C=C/C=C/C=C(\C)[C@@H](O)C[C@H](O)C[C@H](O)C[C@H](O)C[C@H](O)C[C@H](O)C[C@@H]1O` [Filipin, filipin] the inhibition at 260 µg/mL (A. flavus; 0.26 mg/ml) was 0%, the inhibition at 520 µg/mL (A. flavus; 0.52 mg/ml) was 10.3% and the inhibition at 1040 µg/mL (A. flavus; 1.04 mg/ml) was 19%. For the same compound, the inhibition at 2080 µg/mL (A. flavus; 2.08 mg/ml) was 98.3%, the inhibition at 260 µg/mL (E. coli [1]; 0.26 mg/ml) was 0% and the inhibition at 520 µg/mL (E. coli [1]; 0.52 mg/ml) was 0%. For the same compound, the inhibition at 1040 µg/mL (E. coli [1]; 1.04 mg/ml) was 0%, the inhibition at 2080 µg/mL (E. coli [1]; 2.08 mg/ml) was 0% and the inhibition at 260 µg/mL (C. albicans [2]; 0.26 mg/ml) was 10.3%. The inhibition at 520 µg/mL (C. albicans [2]; 0.52 mg/ml) was 50%, the inhibition at 1040 µg/mL (C. albicans [2]; 1.04 mg/ml) was 60.3% and the inhibition at 2080 µg/mL (C. albicans [2]; 2.08 mg/ml) was 100%. For the same compound, the inhibition at 260 µg/mL (C. albicans [3]; 0.26 mg/ml) was 56.8%, the inhibition at 520 µg/mL (C. albicans [3]; 0.52 mg/ml) was 71% and the inhibition at 1040 µg/mL (C. albicans [3]; 1.04 mg/ml) was 80.7%. The inhibition at 2080 µg/mL (C. albicans [3]; 2.08 mg/ml) was 86.8%, the “Corrected Percent Inhibition” value (E. coli [4]) was 18% and the “Corrected Percent Inhibition” value (C. albicans [5]) was 76%.
